Data as given in US9757368B2, “Anti-inflammatory agents” (Resverlogix Corp., priority 2009, dated 2017).

What was measured:
[1] = system: hIL-6 mRNA; assay: Quantification of hIL-6 mRNA in LPS-stimulated U937 macrophages (real-time PCR); type: cell-based, human; set-up: key: Active: an active compound is one that causes a ≧20% inhibition in IL-6 mRNA at a concentration less than or equal to 10 μM; conditions: U937 cells differentiated with PMA, 1 h pretreatment, LPS 1 μg/mL, 3 h; IL-6 mRNA normalised to hCyclophilin; compound ≤10 μM
Description: In this example, hIL-6 mRNA in tissue culture cells was quantitated to measure the transcriptional inhibition of hIL-6 when treated with a compound of the invention.
A human leukemic monocytic lymphoma cell line (U937) was plated (3.2×10^5 cells per well) in a 96-well plate in 100 μL RPMI 1640+10% FBS, and differentiated into macrophages with PMA (60 ng/mL) for 3 days prior to the addition of the compound of interest. The cells were pretreated for 1 h with the test compound in DMSO prior to stimulation with lipopolysaccharide from Escherichia coli at 1 μg/mL. The cells were incubated for 3 h before harvest. At the time of harvest, cells were rinsed in 200 μL PBS. Cell lysis solution (70 μL) was added the cells for 10 min, and mRNA was then prepared using the “mRNA Catcher PLUS plate” (Invitrogen), according to the protocol supplied.
(§1) The eluted mRNA isolated was then used in a one-step quantitative real-time PCR reaction, using components of the UltraSense kit together with Applied Biosystems primer-probe mixes. 10 μL of template was amplified with 1.75 μL of IL-6 primer-probe, and 1 μL of hCyclophilin primer probe, and the reaction was carried out in multiplex. Real-time PCR data was analyzed, normalizing the Ct values for hIL-6 to hCyclophilin, prior to determining the fold induction of each unknown sample, relative to the control.

[2] = system: hVCAM-1 mRNA; assay: Quantification of hVCAM-1 mRNA in TNF-α-stimulated HUV-EC-C cells (real-time PCR); type: cell-based, human; set-up: key: Active: an active compound is one that causes a ≧20% inhibition in VCAM-1 mRNA at a concentration less than or equal to 10 μM; conditions: 1 h pretreatment, TNF-α 10 ng/mL, 24 h, VCAM-1 mRNA normalised to hCyclophilin, compound ≤10 μM
Description: In this example, hVCAM-1 mRNA in tissue culture cells was quantitated to measure the transcriptional inhibition of hVCAM when treated with a compound of the invention.
A human umbilical vein endothelial cell line (HUV-EC-C) was plated in a 96-well plate (5.0×10^3 cells/well) in 100 μL EGM complete media and incubated for 24 h prior to the addition of the compound of interest. The cells were pretreated for 1 h with the test compound in DMSO prior to stimulation with tumor necrosis factor-α (10 ng/mL). The cells were incubated for an additional 24 h before harvest. At time of harvest, the cells were rinsed in 200 μL PBS, and cell lysis solution (70 μL) was then added the cells for 10 min. mRNA was then prepared using the “mRNA Catcher PLUS plate” (Invitrogen), according to the protocol supplied.
as §1, with “mRNA” for “mRNA isolated”, “hVCAM-1” for “IL-6”, “hVCAM-1” for “hIL-6”

| SMILES | Inhibition of IL-6 expression [1] | Inhibition of VCAM-1 expression [2] |
| --- | --- | --- |
| Cc1cc(-c2nc3cc(OCCN(C)C)ccc3c(=O)[nH]2)cc(C)c1O [Example 7, 7-(2-dimethylamino-ethoxy)-2-(4-hydroxy-3,5-dimethylphenyl)-3H-quinazolin-4-one] | Active | Active |
| Cc1cc(-c2nc3ccc(Nc4ccccn4)cc3c(=O)[nH]2)cc(C)c1O [Example 9, 2-(4-hydroxy-3,5-dimethyl-phenyl)-6-(pyridin-2-ylamino)-3H-quinazolin-4-one] | Active | Active |
| Cc1cc(-c2nc3ccc(CN4CCN(C)CC4)cc3c(=O)[nH]2)cc(C)c1O [Example 10, 2-(4-hydroxy-3,5-dimethylphenyl)-6-((4-methylpiperazin-1-yl)methyl)quinazolin-4(3H)-one] | Active | Active |
| Cc1cc(-c2nc3cc(F)cc(F)c3c(=O)[nH]2)cc(C)c1OCCO [Example 15, 5,7-difluoro-2-(4-(2-hydroxyethoxy)-3,5-dimethylphenyl)quinazolin-4(3H)-one] | Active | Inactive |
| Cc1cc(-c2nc3ccc(CN4CCOCC4)cc3c(=O)[nH]2)cc(C)c1OCCO [Example 17, 2-[4-(2-hydroxyethoxy)-3,5-dimethyl-phenyl]-6-morpholin-4-ylmethyl-3H-quinazolin-4-one] | Active | Inactive |
| COc1cc(OC)c2c(=O)[nH]c(-c3cc(C)c(OCC(O)CO)c(C)c3)nc2c1 (stereo not drawn) [Example 18, 2-[4-(2,3-Dihydroxy-propoxy)-3,5-dimethyl-phenyl]-5,7-dimethoxy-3H-quinazolin-4-one] | Active | Active |
| COc1cc(OC)c2c(=O)[nH]c(-c3ccc(OCCO)cc3)nc2c1 [Example 20, 2-[4-(2-hydroxy-ethoxy)-phenyl]-5,7-dimethoxy-3H-quinazolin-4-one] | Active | Active |
| COc1cc(OC)c2c(=O)[nH]c(-c3ccc(OCCO)c4ccccc34)nc2c1 [Example 21, 2-[4-(2-hydroxy-ethoxy)-naphthalen-1-yl]-5,7-dimethoxy-3H-quinazolin-4-one] | Active | Inactive |
| COc1cc(OC)c2c(=O)[nH]c(-c3ccc4oc(CO)cc4c3)nc2c1 [Example 22, 2-(2-hydroxymethyl-benzofuran-5-yl)-5,7-dimethoxy-3H-quinazolin-4-one] | Active | Active |
| COc1cc(OCCOCc2ccccc2)cc2nc(-c3cc(C)c(OCCO)c(C)c3)[nH]c(=O)c12 [Example 23, 7-(2-benzyloxy-ethoxy)-2-[4-(2-hydroxy-ethoxy)-3,5-dimethyl-phenyl]-5-methoxy-3H-quinazolin-4-one] | Active | Active |
| CNC(=O)COc1c(C)cc(-c2nc3cc(OC)cc(OC)c3c(=O)[nH]2)cc1C [Example 25, 2-[4-(5,7-dimethoxy-4-oxo-3,4-dihydro-quinazolin-2-yl)-2,6-dimethyl-phenoxy]-N-methyl-acetamide] | Active | Active |
| COc1ccc(NC(=O)COc2c(C)cc(-c3nc4cc(OC)cc(OC)c4c(=O)[nH]3)cc2C)cc1 [Example 26, 2-[4-(5,7-Dimethoxy-4-oxo-3,4-dihydro-quinazolin-2-yl)-2,6-dimethyl-phenoxy]-N-(4-methoxy-phenyl)-acetamide] | Active | Active |
| COc1cc(OC)c2c(=O)[nH]c(-c3cc(C)c(OCCCCO)c(C)c3)nc2c1 [Example 28, 2-[4-(4-hydroxy-butoxy)-3,5-dimethyl-phenyl]-5,7-dimethoxy-3H-quinazolin-4-one] | Active | Active |
| Cc1cc(-c2nc3cc(Cl)ccc3c(=O)[nH]2)cc(C)c1OCCO [Example 29, 7-chloro-2-(4-(2-hydroxyethoxy)-3,5-dimethylphenyl)quinazolin-4(3H)-one] | Active | Active |
| Cc1cc(-c2nc3c(Cl)cccc3c(=O)[nH]2)cc(C)c1OCCO [Example 30, 8-chloro-2-(4-(2-hydroxyethoxy)-3,5-dimethylphenyl)quinazolin-4(3H)-one] | Active | Inactive |
| COc1cccc2c(=O)[nH]c(-c3cc(C)c(OCCO)c(C)c3)nc12 [Example 31, 2-(4-(2-hydroxyethoxy)-3,5-dimethylphenyl)-8-methoxyquinazolin-4(3H)-one] | Active | Active |
| Cc1cc(-c2nc3cccc(Cl)c3c(=O)[nH]2)cc(C)c1OCCO [Example 32, 5-chloro-2-(4-(2-hydroxyethoxy)-3,5-dimethylphenyl)quinazolin-4(3H)-one] | Active | Active |
| COc1ccc2c(=O)[nH]c(-c3cc(C)c(OCCO)c(C)c3)nc2c1 [Example 33, 2-(4-(2-hydroxyethoxy)-3,5-dimethylphenyl)-7-methoxyquinazolin-4(3H)-one] | Active | Active |
| Cc1cc(-c2nc3ccc(CN4CCN(C)CC4)cc3c(=O)[nH]2)cc(C)c1OCCO [Example 34, 2-(4-(2-hydroxyethoxy)-3,5-dimethylphenyl)-6-((4-methylpiperazin-1-yl)methyl)quinazolin-4(3H)-one] | Active | Active |
| COc1cc(OC)c2c(=O)[nH]c(-c3ccc(OCCNc4nnc(-c5ccccc5)[nH]4)c(C)c3)nc2c1 [Example 35, 5,7-Dimethoxy-2-{3-methyl-4-[2-(5-phenyl-4H-[1,2,4]triazol-3-ylamino)-ethoxy]-phenyl}-3H-quinazolin-4-one] | Active | Active |
| COc1cc(OC)c2c(=O)[nH]c(-c3cc(C)c(OCCNc4nc(C)no4)c(C)c3)nc2c1 [Example 36, 2-{3,5-Dimethyl-4-[2-(3-methyl-[1,2,4]oxadiazol-5-ylamino)-ethoxy]-phenyl}-5,7-dimethoxy-3H-quinazolin-4-one] | Active | Active |
| COc1cc(OC)c2c(=O)[nH]c(-c3cc(C)c(OCCNC(C)=O)c(C)c3)nc2n1 [Example 37, N-{2-[4-(5,7-dimethoxy-4-oxo-3,4-dihydro-pyrido[2,3-d]pyrimidin-2-yl)-2,6-dimethyl-phenoxy]-ethyl}-acetamide] | Active | Inactive |
| COc1cc(OC)c2c(=O)[nH]c(-c3cc(C)c(CNC(C)=O)c(C)c3)nc2c1 [Example 38, N-(4-(5,7-dimethoxy-4-oxo-3,4-dihydroquinazolin-2-yl)-2,6-dimethylbenzyl)acetamide] | Active | Active |
| COc1cc(OC)c2c(=O)[nH]c(-c3cc(C)c(CNC(C)=O)c(C)c3)nc2n1 [Example 39, N-[4-(5,7-dimethoxy-4-oxo-3,4-dihydro-pyrido[2,3-d]pyrimidin-2-yl)-2,6-dimethyl-benzyl]-acetamide] | Active | Active |
